Measured values as given in publication PMC5897986 (Frontiers in Endocrinology, 2018).

What was measured:
[1] = test system: metastatic, well- or moderately differentiated, non-functional enteropancreatic NET; conditions: patients, CLARINET trial, placebo 18 months; cited from earlier work
From the text: Somatostatin analogs (SSAs) are well-established antisecretory drugs with a favorable safety profile that have been used as first-line treatment to control hormone hypersecretion in functionally active neuroendocrine tumors (NET) for more than 30 years ([1], [2]). […] The relevance of SSAs in antiproliferative treatment has been a matter of debate for the past two decades.

[2] = test system: SSTR-binding sites at the cell surface of LCC-18 cells; test: competitive [125I]-Tyr11-SST14 radioligand binding assay, LCC-18 cells; design: species or system human; conditions: only background binding, unlabeled peptide 0.01 nM–10 µM
Protocol: (§1) Peptide iodination and radioligand-binding assays were performed as previously described ([21]). Briefly, 10 nmol Tyr^11-somatostatin-14 (Tyr^11–SST14, Bachem, Bubendorf, Switzerland) were iodinated by the chloramin T method ([22]) with 1 mCi carrier-free Na^125I (NEZ033L010MC, Perkin Elmer, Waltham, MA, USA) and purified by HPLC (Analytic HPLC 1200 Series, Agilent, Santa Clara, CA, USA) (see Figure S1 in Supplementary Material). For competitive radioligand binding assays, 40,000 cells were seeded in 96-well plates and grown overnight. The next day, cells were incubated in binding buffer (50 mM Hepes, pH 7.4, 5 mM MgCl2, 1 mM CaCl2, 0.5% w/v BSA, cOmplete protease inhibitors) containing 100,000 counts per minute (cpm) [^125I]-Tyr^11-SST14 and increasing concentrations of unlabeled peptide. After 30 min at 37°C, cells were washed with ice-cold washing buffer (50 mM Tris–HCl, pH 7.4, 125 mM NaCl, 0.05% w/v BSA), lysed with 1 N NaOH, transferred to vials, and measured in a gamma counter (Wallac 1470 Wizard, Perkin Elmer, Waltham, MA, USA). The obtained cpm values were analyzed with GraphPad Prism 5.04, and IC50 values were calculated by non-linear regression (one site—fit logIC50, least squares fit).

[3] = test system: SSTR-binding sites at the cell surface of UMC-11 cells; test: competitive [125I]-Tyr11-SST14 radioligand binding assay, UMC-11 cells; design: species or system human; conditions: UMC-11 whole cells, 30 min at 37°C, unlabeled peptide 0.01 nM–10 µM, gamma counter; read-out: IC50, displacement of [125I]-Tyr11-SST14
Protocol: as §1

[4] = test system: SSTR-binding sites at the cell surface of BON cells; test: competitive [125I]-Tyr11-SST14 radioligand binding assay, BON cells; design: species or system human; conditions: BON whole cells, 30 min at 37°C, unlabeled peptide 0.01 nM–10 µM, gamma counter; read-out: IC50, displacement of [125I]-Tyr11-SST14
Protocol: as §1

[5] = test system: human SSTR2 in QGP-1-SSTR2 cells; test: microscopic SSTR2 internalization assay; format: cell-based; conditions: QGP-1-SSTR2, 1 µM ligand, 30 min at 37°C, confocal microscopy
Protocol: (§2) Cells were grown on coverslips for at least 24 h. […] Cells were washed with PBS, fixated in 1:1 acetone/methanol for 2 min, and incubated with anti-SSTR2 primary antibody (sc365502, Santa Cruz Biotechnology, Dallas, TX, USA) diluted 1:50 in PBS overnight at 4°C. After washing with PBS, cells were incubated with a Cy3-conjugated goat anti-mouse secondary antibody (#115-165-146, Jackson ImmunoResearch, West Grove, PA, USA) diluted 1:1,000 in PBS for 1 h at room temperature. After washing with PBS, coverslips were briefly dipped into 96% ethanol, air-dried, and mounted on glass slides with Immu-Mount (Thermo Fisher Scientific, Waltham, MA, USA). Mounted cells were imaged using a confocal laser scanning microscope (LSM510, Carl Zeiss, Jena, Germany) using a helium–neon laser at 543 nm, LP560 emission filter, and 40× or 63× NeoFluar oil immersion objectives. RIN-1038-SSTR2-GFP cells were not immunostained after fixation, but otherwise treated the same. To visualize GFP fluorescence, an argon laser at 488 nm, LP505 emission filter was utilized on the same microscope.

[6] = test system: human SSTR2 in BON-SSTR2 cells; test: microscopic SSTR2 internalization assay; format: cell-based; conditions: BON-SSTR2, 1 µM ligand, 30 min at 37°C, confocal microscopy
Protocol: as §2

[7] = test system: SSTR-binding sites at the cell surface of H727 cells; test: competitive [125I]-Tyr11-SST14 radioligand binding assay, H727 cells; design: species or system human; conditions: only background binding, unlabeled peptide 0.01 nM–10 µM
Protocol: as §1

[8] = test system: SSTR-binding sites at the cell surface of QGP-1 cells; test: competitive [125I]-Tyr11-SST14 radioligand binding assay, QGP-1 cells; design: species or system human; conditions: only background binding, unlabeled peptide 0.01 nM–10 µM
Protocol: as §1

Substance	median progression-free survival [1]	displacement of [125I]-Tyr11-SST14 binding [2]	IC50 [3]	IC50 [4]	SSTR2 internalization / redistribution [5]	SSTR2 internalization / redistribution [6]	displacement of [125I]-Tyr11-SST14 binding [7]	displacement of [125I]-Tyr11-SST14 binding [8]
lanreotide	not reached							
somatostatin-14		no displacement	0.7 ± 0.29 nM	0.5 ± 0.16 nM	functional, ligand-dependent SSTR2 internalization	functional, ligand-dependent SSTR2 internalization	no displacement	no displacement
